Assay results: patent US9073912B2, “Azetidine derivatives as antiparasitic agents” (Zoetis LLC, priority 2012, dated 2015)

Tested on: Ctenocephalides felis
Experiment: Flea (Ctenocephalides felis) Membrane Feed Assay-Adult
Conditions: for lethal dose 80% (LD80): adult fleas fed approx. 2 hours on treated citrated bovine blood, knockdown and/or death observed at approx. 2 and 24 hours; for minimum effective concentration (MEC): assessed at 24 hours, 10-flea sample
Description: Flea (Ctenocephalides felis) Membrane Feed Assay-Adult
Formula (1) compounds were dissolved in DMSO and aliquots added to citrated bovine blood in a membrane covered Petri dish pre-warmed to 37° C. Feeding tubes containing approximately 30-35 adult fleas were placed onto the Petri dishes. The fleas fed for approximately 2 hours. […] Endpoint data is recorded as a lethal dose 80% (LD^80) in μg/mL. […] Further, the results can be assessed at 24 hours based on minimum effective concentration (MEC) in μM with a 10-flea sample.

SMILES	lethal dose 80% (LD80) [µg/mL]	minimum effective concentration (MEC) [µM]
CS(=O)(=O)CC(=O)N1CC(F)(c2ccc(C3=NCC(c4cc(Cl)c(F)c(Cl)c4)(C(F)(F)F)C3)cc2)C1 (centres unmarked) [Example 3, 3-(3,5-dichloro-4-fluorophenyl)-5-(4-{3-fluoro-1-[(methylsulfonyl)-acetyl]azetidin-3-yl}phenyl)-3-(trifluoromethyl)-3,4-dihydro-2H-pyrrole]	3	1
CC(C)C(=O)N1CC(F)(c2ccc(C3=NCC(c4cc(Cl)cc(Cl)c4)(C(F)(F)F)C3)cc2)C1 (centres unmarked) [Example 2, 1-(3-{4-[4-(3,5-dichloro-phenyl)-4-trifluoromethyl-4,5-dihydro-3H-pyrrol-2-yl]-phenyl}-3-fluoro-azetidin-1-yl)-2-methyl-propan-1-one]	0.3	1
CC(C)C(=O)N1CC(F)(c2ccc(C3=NCC(c4cc(Cl)c(Cl)c(Cl)c4)(C(F)(F)F)C3)cc2)C1 (centres unmarked) [Example 6, 5-[4-(3-fluoro-1-isobutyrylazetidin-3-yl)phenyl]-3-(3,4,5-trichloro-phenyl)-3-(trifluoromethyl)-3,4-dihydro-2H-pyrrole]	3	
CC(C)C(=O)N1CC(F)(c2ccc(C3=NOC(c4cc(Cl)c(F)c(Cl)c4)(C(F)(F)F)O3)cc2)C1 (centres unmarked) [Example 8, 1-(3-{4-[5(3,5-dichloro-4-fluoro-phenyl)-5-trifluoromethyl-[1,4,2]dioxazol-3-yl]-phenyl}-3-fluoro-azetidin-1-yl)-2-methyl-propan-1-one]		30
CS(=O)(=O)CC(=O)N1CC(F)(c2ccc(C3=NNC(c4cc(Cl)c(F)c(Cl)c4)(C(F)(F)F)C3)cc2)C1 (centres unmarked) [Example 18, 1-(3-(4-(5-(3,5-dichloro-4-fluorophenyl)-5-(trifluoromethyl)-4,5-dihydro-1H-pyrazol-3-yl)phenyl)-3-fluoroazetidin-1-yl)-2-(methylsulfonyl)ethanone]		30
CS(=O)(=O)CC(=O)N1CC(F)(c2ccc(C3=NCC(c4cc(Cl)cc(Cl)c4)(C(F)(F)F)C3)cc2)C1 (centres unmarked) [Example 1, 1-(3-{4-[4-(3,5-dichloro-phenyl)-4-trifluoromethyl-4,5-dihydro-3H-pyrrol-2-yl]-phenyl}-3-fluoro-azetidin-1-yl)-2-methanesulfonyl-ethanone]		3
CS(=O)(=O)CC(=O)N1CC(F)(c2ccc(C3=NCC(c4cc(Cl)c(Cl)c(Cl)c4)(C(F)(F)F)C3)cc2)C1 (centres unmarked) [Example 5, 1-(3-fluoro-3-{4-[4-(3,4,5-trichloro-phenyl)-4-trifluoromethyl-4,5-dihydro-3H-pyrrol-2-yl]-phenyl}-azetidin-1-yl)-2-methanesulfonyl-ethanone]	1	1
CC(C)C(=O)N1CC(F)(c2ccc(C3=NCC(c4cc(Cl)c(F)c(Cl)c4)(C(F)(F)F)C3)cc2)C1 (centres unmarked) [Example 4, 3-(3,5-dichloro-4-fluorophenyl)-5-[4-(3-fluoro-1-isobutyrylazetidin-3-yl)phenyl]-3-(trifluoromethyl)-3,4-dihydro-2H-pyrrole]		1
